The source made the active and inactive calls. No cut-off for these calls is given here.
What was measured:
Mus musculus [1] = experiment: Compound was evaluated for the neuro toxicity up to 4 hours after doses of <=300 mg/kg administered intraperitoneally; No toxicity; assay type: organism-based; settings: in vivo, ip
Mus musculus [2] = experiment: Compound was evaluated for the dose required for protection against scMET-induced seizures after 4 hours of intraperitoneal administration; assay type: functional
Mus musculus [3] = experiment: Compound was evaluated for the dose required for protection against MES-induced seizures after 4 hours of intraperitoneal administration at the doses< = 0.77-0.90 mM/kg; Inactive; assay type: functional, organism-based
Mus musculus [4] = experiment: Compound was evaluated for the dose required for protection against scMET-induced seizures after 4 hours of intraperitoneal administration; Inactive; assay type: functional, organism-based
Mus musculus [5] = experiment: Compound was evaluated for the dose required for protection against MES-induced seizures after 4 hours of intraperitoneal administration; Inactive; assay type: functional, organism-based
Mus musculus [6] = experiment: Compound was evaluated for the dose required for protection against scMET-induced seizures after 4 hours of intraperitoneal administration at the doses< = 0.77-0.90 mM/kg; Inactive; assay type: functional, organism-based
Mus musculus [7] = experiment: Compound was evaluated for the dose required for protection against MES-induced seizures after 4 hours of intraperitoneal administration; assay type: functional

SMILES	Neurotoxicity (Mus musculus [1])	Activity (Mus musculus [2])	Activity (Mus musculus [3])	Activity (Mus musculus [4])	Activity (Mus musculus [5])	Activity (Mus musculus [6])	Activity (Mus musculus [7])
O=C1NC(=O)C(c2cccc(C(F)(F)F)c2)(c2cccc(C(F)(F)F)c2)N1	No toxicity	2.6 mmol/kg	inactive				
Cc1cccc(C2(c3cccc(C(F)(F)F)c3)NC(=O)NC2=O)c1 (stereo in doubt; 9)				inactive	inactive		
O=C1NC(=O)C(c2ccc(C(F)(F)F)cc2)(c2cccc(C(F)(F)F)c2)N1 (centres undefined)	No toxicity			inactive	inactive		
O=C1NC(=O)C(c2ccccc2)(c2ccc(C(F)(F)F)cc2)N1 (centres undefined)	No toxicity					inactive	0.94 mmol/kg
Cc1ccc(C2(c3ccc(C(F)(F)F)cc3)NC(=O)NC2=O)cc1 (centres undefined)	No toxicity			inactive	inactive		

Reference: ChEMBL document CHEMBL1121659 (J Med Chem, 1981)
